Laboratory results published in paper PMC7662656, “Pyrazole Incorporated New Thiosemicarbazones: Design, Synthesis and Investigation of DPP-4 Inhibitory Effects” (Molecules, 2020).

Columns and labels:
DPP-4 = biological target: T1, DPP-4 (Homo sapiens, UniProt P27487); test: DPP-4 Inhibitor Screening Assay (fluorescence-based, Gly-Pro-AMC substrate); type: biochemical; conditions: mean ± SD; for inhibition at 100 µM: compound at 100 µM, triplicate; for IC50: five concentrations 10^−1 to 10^−5 µM, read-out: IC50 for DPP-4 inhibition
T1 construct: purchased Cayman Chemicals, Ann Arbor, MI, USA
T1 sequence (P27487 whole entry): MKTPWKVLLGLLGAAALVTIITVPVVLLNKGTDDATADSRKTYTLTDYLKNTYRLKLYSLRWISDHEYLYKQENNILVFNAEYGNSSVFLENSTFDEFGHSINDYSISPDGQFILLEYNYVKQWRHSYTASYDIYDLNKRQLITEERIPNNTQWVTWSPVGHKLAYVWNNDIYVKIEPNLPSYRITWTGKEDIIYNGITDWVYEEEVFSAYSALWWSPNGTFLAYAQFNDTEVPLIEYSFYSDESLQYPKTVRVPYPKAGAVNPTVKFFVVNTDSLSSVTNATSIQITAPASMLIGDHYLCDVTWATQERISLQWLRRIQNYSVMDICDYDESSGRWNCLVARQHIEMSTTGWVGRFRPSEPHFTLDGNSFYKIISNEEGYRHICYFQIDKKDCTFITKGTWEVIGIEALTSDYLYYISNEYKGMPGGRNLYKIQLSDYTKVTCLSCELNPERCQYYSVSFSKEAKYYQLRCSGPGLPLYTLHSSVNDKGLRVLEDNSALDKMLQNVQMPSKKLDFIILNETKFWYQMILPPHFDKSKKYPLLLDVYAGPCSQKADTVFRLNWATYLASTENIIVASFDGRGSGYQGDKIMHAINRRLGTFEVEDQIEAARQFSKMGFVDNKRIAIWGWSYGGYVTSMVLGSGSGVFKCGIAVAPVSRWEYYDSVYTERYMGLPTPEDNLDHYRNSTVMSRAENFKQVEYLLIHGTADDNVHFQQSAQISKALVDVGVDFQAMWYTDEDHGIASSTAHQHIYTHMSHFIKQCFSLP
Experimental: This assay kit allows DPP-4 measurement using Gly-Pro-Aminomethylcoumarin (AMC) as a fluorogenic substrate. The free AMC group is released through the cleavage of the peptide bond by DPP leading to fluorescence that can be examined using appropriate excitation and emission wavelengths. Briefly, the experiment was performed triplicate in a white flat bottom 96 well plate. Thirty microlitres of assay buffer, 10 µL of DPP-4 enzyme, 10 µL of dimethyl sulfoxide (DMSO), and 50 µL of DPP substrate were added to 100% initial activity wells. Forty microlitres of assay buffer, 10 µL of DMSO, and 50 µL of DPP substrate were added to background wells. Thirty microlitres of assay buffer, 10 µL of DPP-4 enzyme, 10 µL of sample, and 50 µL of DPP substrate were added to inhibitor wells. […] The plate was incubated for 30 min at 37 °C, and fluorescence measurements were analyzed using an excitation wavelength of 360/40 nm and an emission wavelength of 460/40 nm in a multi-mode plate reader (Synergy HTX S1LFA, BioTek Instruments, Winooski, VT, USA). All assays were performed in triplicate. The fluorescence of the background wells was subtracted from all other wells before the calculations. The per cent inhibition was determined by the following formula in equation 1:Inhibition% = [(Initial activity − Inhibitor)/Initial Activity] × 100(1)

[1] = MTT cytotoxicity assay on NIH/3T3 cells; type: cell-based; conditions: mouse, NIH/3T3 mouse embryonic fibroblast cells, 24 h incubation, 31.25-500 µM, read-out: IC50 cytotoxicity towards NIH/3T3 cell line
Experimental: NIH/3T3 mouse embryonic fibroblast (normal) cells (ATCC® CRL-1658™) were grown in RPMI 1640 medium (Sigma-Aldrich, St. Louis, MO, USA) supplemented with 2 mM L-glutamine (Gibco, Paisley, UK), 10% fetal bovine serum (Gibco, Paisley, UK) and 1% penicillin/streptomycin (Gibco, Paisley, UK) at 37 °C in a humidified incubator with a 5% CO2 atmosphere. Compounds 2a–o were dissolved in DMSO (Sigma-Aldrich, St. Louis, MO, USA) and diluted to required concentrations with a fresh medium. The control group (solvent control) was prepared with a medium containing 0.1% DMSO. […]
In order to determine IC50 concentrations of compounds 2a–o, cell viability was determined by MTT assay. […] The absorbance values were measured at 540 nm using a Cytation 3 Cell Imaging Multi-Mode Reader (BioTek, Winooski, VT, USA). Cell survival rates were expressed as the percentage of the DMSO (0.1%) solvent control and IC50 concentrations were calculated according to the analysis result.

Q: For `S=C(N/N=C/c1ccccc1)Nc1ccc(-n2cccn2)cc1` [Compound 2a, [4-(1H-Pyrazol-1-yl)phenyl]-1-(benzylidene)thiosemicarbazide], which inhibition at 100 µM (DPP-4) is on record?
A: The inhibition at 100 µM was 20.7 ± 1.82%.

Q: Which inhibition at 100 µM (DPP-4) does the source give for `O=[N+]([O-])c1ccc(/C=N/NC(=S)Nc2ccc(-n3cccn3)cc2)cc1` [Compound 2b, [4-(1H-Pyrazol-1-yl)phenyl]-1-(4-nitrobenzylidene)thiosemicarbazide] here?
A: The inhibition at 100 µM was 35.5 ± 1.75%.

Q: For `N#Cc1ccc(/C=N/NC(=S)Nc2ccc(-n3cccn3)cc2)cc1` [Compound 2c, [4-(1H-Pyrazol-1-yl)phenyl]-1-(4-cyanobenzylidene)thiosemicarbazide], which inhibition at 100 µM (DPP-4) is on record?
A: Its inhibition at 100 µM is 28 ± 1.63%.

Q: With `Fc1ccc(/C=N/NC(=S)Nc2ccc(-n3cccn3)cc2)cc1` [Compound 2d, [4-(1H-Pyrazol-1-yl)phenyl]-1-(4-fluorobenzylidene)thiosemicarbazide] as the compound, how does the inhibition at 100 µM (DPP-4) read?
A: The inhibition at 100 µM was 27.3 ± 2.03%.

Q: For `S=C(N/N=C/c1ccc(Cl)cc1)Nc1ccc(-n2cccn2)cc1` [Compound 2e, [4-(1H-Pyrazol-1-yl)phenyl]-1-(4-chlorobenzylidene)thiosemicarbazide], which inhibition at 100 µM (DPP-4) is on record?
A: The inhibition at 100 µM was 38.4 ± 2.14%.

Q: Which IC50 at 24 h [1] does the source give for `S=C(NN=Cc1ccc(Br)cc1)Nc1ccc(-n2cccn2)cc1` [Compound 2f, 4-[4-(1H-pyrazol-1-yl)phenyl]-1-(4-bromobenzylidene)thiosemicarbazide] here?
A: The IC50 at 24 h was greater than 500000 nM.

Q: What about the IC50 (DPP-4) of the same compound?
A: The IC50 was 1.27 ± 0.264 nM.

Q: Which inhibition at 100 µM (DPP-4) does the source give for `FC(F)(F)c1ccc(/C=N/NC(=S)Nc2ccc(-n3cccn3)cc2)cc1` [Compound 2g, [4-(1H-Pyrazol-1-yl)phenyl]-1-(4-trifluoromethylbenzylidene)thiosemicarbazide] here?
A: The inhibition at 100 µM was greater than 60%.

Q: What about the IC50 (DPP-4) of the same compound?
A: The IC50 was 4.78 ± 0.296 nM.

Q: Which inhibition at 100 µM (DPP-4) does the source give for `Cc1ccc(/C=N/NC(=S)Nc2ccc(-n3cccn3)cc2)cc1` [Compound 2h, [4-(1H-Pyrazol-1-yl)phenyl]-1-(4-methylbenzylidene)thiosemicarbazide] here?
A: Its inhibition at 100 µM is 53.2 ± 3.1%.

Q: With `COc1ccc(/C=N/NC(=S)Nc2ccc(-n3cccn3)cc2)cc1` [Compound 2i, [4-(1H-Pyrazol-1-yl)phenyl]-1-(4-methoxybenzylidene)thiosemicarbazide] as the compound, how does the inhibition at 100 µM (DPP-4) read?
A: The inhibition at 100 µM was greater than 60%.

Q: What about the IC50 (DPP-4) of the same compound?
A: Its IC50 is 43.31 ± 0.372 nM.

Q: With `CS(=O)(=O)c1ccc(/C=N/NC(=S)Nc2ccc(-n3cccn3)cc2)cc1` [Compound 2j, [4-(1H-Pyrazol-1-yl)phenyl]-1-(4-methylsulfonylbenzylidene)thiosemicarbazide] as the compound, how does the inhibition at 100 µM (DPP-4) read?
A: The inhibition at 100 µM was 59.8 ± 1.13%.

Q: Which inhibition at 100 µM (DPP-4) does the source give for `CSc1ccc(/C=N/NC(=S)Nc2ccc(-n3cccn3)cc2)cc1` [Compound 2k, [4-(1H-Pyrazol-1-yl)phenyl]-1-(4-methylthiobenzylidene)thiosemicarbazide] here?
A: The inhibition at 100 µM was greater than 60%.

Q: And the IC50 (DPP-4)?
A: Its IC50 is 22.7 ± 0.301 nM.

Q: For `CN(C)c1ccc(/C=N/NC(=S)Nc2ccc(-n3cccn3)cc2)cc1` [Compound 2l, [4-(1H-Pyrazol-1-yl)phenyl]-1-(4-dimethylaminobenzylidene)thiosemicarbazide], which inhibition at 100 µM (DPP-4) is on record?
A: The inhibition at 100 µM was 57.3 ± 1.04%.

Q: Which inhibition at 100 µM (DPP-4) does the source give for `CC(C)c1ccc(/C=N/NC(=S)Nc2ccc(-n3cccn3)cc2)cc1` [Compound 2m, [4-(1H-Pyrazol-1-yl)phenyl]-1-(4-isopropylbenzylidene)thiosemicarbazide] here?
A: The inhibition at 100 µM was 47.4 ± 1.29%.

Q: Which inhibition at 100 µM (DPP-4) does the source give for `CC(C)(C)c1ccc(/C=N/NC(=S)Nc2ccc(-n3cccn3)cc2)cc1` [Compound 2n, [4-(1H-Pyrazol-1-yl)phenyl]-1-(4-tert-butylbenzylidene)thiosemicarbazide] here?
A: Its inhibition at 100 µM is 28.6 ± 1.76%.

Q: Which inhibition at 100 µM (DPP-4) does the source give for `S=C(N/N=C/c1ccc(-c2ccccc2)cc1)Nc1ccc(-n2cccn2)cc1` [Compound 2o, [4-(1H-Pyrazol-1-yl)phenyl]-1-(4-phenylbenzylidene)thiosemicarbazide] here?
A: The inhibition at 100 µM was greater than 60%.

Q: What about the IC50 (DPP-4) of the same compound?
A: Its IC50 is 18.1 ± 0.311 nM.
